Reference: patent US20170266151A1, “Novel salts of 3-[(DIMETHYLAMINO)METHYL]-N--1-BENZOFURAN-2-CARBOXAMIDE, related crystalline forms, method for preparing the same and pharmaceutical compositions containing the same” (Pharmacyclics LLC, priority 2014, published 2017)
Values belong to the molecule of their own block, whether it stands above or below them.

Assays:
[1] = Hygroscopicity by dynamic vapor sorption (DVS); assay type: physicochemical
Procedure: The hygroscopicity of the crystalline forms of the salts of 3-[(dimethylamino)methyl]-N-{2-[4-(hydroxycarbamoyl)phenoxy]ethyl}-1-benzofuran-2-carboxamide according to the invention was evaluated by dynamic vapor sorption (DVS) using a DVS Intrinsic apparatus. A sample of 5 to 10 mg of the substance, weighed accurately, was disposed in a DVS sample pan operating at 25° C. under controlled humidity. The mass variation was recorded on the basis of a balancing bearing at 50% relative humidity, followed by three subsequent linear phases of increasing (from 50 to 90%), of decreasing (from 90 to 0%) and of increasing (from 0 to 50%) the relative humidity at a speed of 10% per hour. The relative humidity was maintained constant when it reached either 0, or 50, or 90% relative humidity, until the mass variation was less than 0.002% per minute, with a time limit of 15 hours.
The hygroscopicity of the hemipentahydrate crystalline form of the hydrogen sulfate of 3-[(dimethylamino)methyl]-N-{2-[4-(hydroxycarbamoyl)phenoxy]ethyl}-1-benzofuran-2-carboxamide according to the invention was evaluated by dynamic vapor sorption (DVS) using a DVS Intrinsic apparatus. A sample of 5 to 10 mg of the substance, weighed accurately, was disposed in a DVS sample pan operating at 25° C. under controlled humidity. The mass variation was recorded on the basis of a balancing bearing at 50% relative humidity, followed by three subsequent linear phases of increasing (from 50 to 90%), of decreasing (from 90 to 0%) and of increasing (from 0 to 50%) the relative humidity at a speed of 10% per hour. The relative humidity was maintained constant when it reached either 0, or 50, or 90 % relative humidity, until the mass variation is less than 0.002% per minute, with a time limit of 15 hours.

[2] = system: xenograft models; details: Buggy et al. 2006; cited from earlier work
[3] = system: tumor cells; details: tumor cells cultured in vitro; Buggy et al. 2006; cited from earlier work
[4] = salt of WO 2004/092115; use on industrial scale difficult; cited from earlier work

mass variation detected by DVS analysis ([1]; exposure to between 0 and 90% relative humidity at 25° C.): less than 0.2%
Molecule: CN(C)Cc1c(C(=O)NCCOc2ccc(C(=O)NO)cc2)oc2ccccc12.O=C(O)C(=O)O [Example 3, Oxalate of 3-[(dimethylamino)methyl]-N-{2-[4-(hydroxycarbamoyl)phenoxy]ethyl}-1-benzofuran-2-carboxamide]

Molecule: CN(C)Cc1c(C(=O)NCCOc2ccc(C(=O)NO)cc2)oc2ccccc12 [abexinostat, 3-[(Dimethylamino)methyl]-N-{2-[4-(hydroxycarbamoyl)phenoxy]ethyl}-1-benzofuran-2-carboxamide]
effect on tumor growth [2]: inhibit tumor growth
effect on apoptosis [3]: induce apoptosis
effect on cell growth [3]: inhibit cell growth

Molecule: CN(C)Cc1c(C(=O)NCCOc2ccc(C(=O)NO)cc2)oc2ccccc12.Cl [hydrochloride, hydrochloride of 3-[(dimethylamino)methyl]-N-{2-[4-(hydroxycarbamoyl)phenoxy]ethyl}-1-benzofuran-2-carboxamide]
hygroscopic properties [4]: hygroscopic

relative humidity beyond which converted into hemiheptahydrate hydrogen sulfate ([1]; DVS, 25° C., increasing humidity): > 70 % relative humidity
Molecule: Hydrogen Sulfate of 3-[(dimethylamino)methyl]-N-{2-[4-(hydroxycarbamoyl)phenoxy]ethyl}-1-benzofuran-2-carboxamide [Example 5]

Molecule: Hydrogen Sulfate of 3-[(dimethylamino)methyl]-N-{2-[4-(hydroxycarbamoyl)phenoxy]ethyl}-1-benzofuran-2-carboxamide [Example 6]
relative humidity below which dehydrated completely ([1]; DVS, 25° C., decreasing humidity to 0%): Below 20 % relative humidity
